Data taken from publication PMC10165273, “Itch receptor MRGPRX4 interacts with the receptor activity–modifying proteins” (The Journal of Biological Chemistry, 2023).
“And” between values parts separate entries of the source, which are not always exact repeats. Equal entries are not always repeated. Where two headings read alike, the source gives them in different places.

Molecular target: T1, MRGPRX4 (Homo sapiens, UniProt Q96LA9)
T1 construct: expressed in transfected cells; host or cells: HEK293T
Assay: IP1 accumulation HTRF assay, MRGPRX4
Type: cell-based
Parameters: key to IP1 Basal / IP1 accumulation with YM (Figure 1c) / response to agonist, MRGPRX4 / IP1 accumulation: % IP1: unstimulated mock-transfected = 0%, fully stimulated MRGPRX4 = 100%

T1 sequence (Q96LA9 whole entry): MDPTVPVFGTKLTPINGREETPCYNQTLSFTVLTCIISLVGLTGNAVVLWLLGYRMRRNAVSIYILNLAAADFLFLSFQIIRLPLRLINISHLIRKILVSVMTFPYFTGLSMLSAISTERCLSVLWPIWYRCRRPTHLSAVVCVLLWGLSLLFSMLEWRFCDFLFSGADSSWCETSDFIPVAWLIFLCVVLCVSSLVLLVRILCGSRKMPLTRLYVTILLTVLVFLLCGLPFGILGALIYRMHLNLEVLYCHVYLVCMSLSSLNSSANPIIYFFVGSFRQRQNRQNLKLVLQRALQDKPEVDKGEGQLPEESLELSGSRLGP

For CC(C)[C@H]1CC[C@H](C(=O)N[C@H](Cc2ccccc2)C(=O)O)CC1 [Nateglinide], the EC50 (MRGPRX4 0.25 pg DNA/cell, individual experiments, read-out: potency (Figure 1b top) (converted)) was 13.5 µM (2×) and 12.5 µM, the Emax (MRGPRX4 0.5 pg DNA/cell, individual experiments, read-out: efficacy (Figure 1b bottom)) was 95.7% and the EC50 (MRGPRX4 0.5 pg DNA/cell, individual experiments, read-out: potency (Figure 1b top) (converted)) was 12.3 µM and 9.23 µM. For the same molecule, the Emax (MRGPRX4 1 pg DNA/cell, individual experiments, read-out: efficacy (Figure 1b bottom)) was 104%, the EC50 (MRGPRX4 1 pg DNA/cell, individual experiments, read-out: potency (Figure 1b top) (converted)) was 10.9 µM and 9.68 µM and 8.2 µM and the Emax (MRGPRX4 2 pg DNA/cell, individual experiments, read-out: efficacy (Figure 1b bottom)) was 97.2%. The EC50 (MRGPRX4 2 pg DNA/cell, individual experiments, read-out: potency (Figure 1b top) (converted)) was 6.87 µM and 6.27 µM and 6.64 µM, the “IP1 Basal” value (MRGPRX4 (Fig. 1A), HEK293T, normalized to 100 μM nateglinide) was 14.95 and the EC50 (MRGPRX4 (Fig. 1A), HEK293T, normalized to 100 μM nateglinide, read-out: IP1 EC50) was 10.7 µM. For the same molecule, the EC50 (MRGPRX4, HEK293T (Fig. 1A), read-out: EC50 concentration, IP1 accumulation) was 10.6 µM, the IP1 accumulation (MRGPRX4: 2pg/cell, log [Nateglinide] (M) -4, Fig S1b/c) was 100 and the IP1 accumulation (MRGPRX4: 2pg/cell, log [Nateglinide] (M) -4.69897, Fig S1b/c) was 88.6878 and 83.9734. The IP1 accumulation (MRGPRX4: 2pg/cell, log [Nateglinide] (M) -5.39794, Fig S1b/c) was 45.9251 and 47.3838, the IP1 accumulation (MRGPRX4: 2pg/cell, log [Nateglinide] (M) -6.09691, Fig S1b/c) was 18.7171 and 20.7267 and the IP1 accumulation (MRGPRX4: 2pg/cell, log [Nateglinide] (M) -6.79588, Fig S1b/c) was 11.3987 and 15.6075. For the same molecule, the IP1 accumulation (MRGPRX4: 2pg/cell, log [Nateglinide] (M) -7.49485, Fig S1b/c) was 10.9025 and 14.1936, the “IP1 Basal” value (MRGPRX4 DNA 0.25 pg/cell (Fig. S1)) was 4.926 and the EC50 (MRGPRX4 DNA 0.25 pg/cell (Fig. S1), read-out: IP1 EC50) was 13.6 µM. For the same molecule, the Emax (MRGPRX4 DNA 0.25 pg/cell (Fig. S1), read-out: IP1 Emax) was 84.4%, the Emax (MRGPRX4 DNA 0.25 pg/cell (Fig. S1), read-out: IP1 span) was 79.5% and the “IP1 Basal” value (MRGPRX4 DNA 0.5 pg/cell (Fig. S1)) was 6.421. The EC50 (MRGPRX4 DNA 0.5 pg/cell (Fig. S1), read-out: IP1 EC50) was 11 µM, the Emax (MRGPRX4 DNA 0.5 pg/cell (Fig. S1), read-out: IP1 Emax) was 97.5% and the Emax (MRGPRX4 DNA 0.5 pg/cell (Fig. S1), read-out: IP1 span) was 91%. For the same molecule, the “IP1 Basal” value (MRGPRX4 DNA 1 pg/cell (Fig. S1)) was 9.219, the EC50 (MRGPRX4 DNA 1 pg/cell (Fig. S1), read-out: IP1 EC50) was 9.79 µM and the Emax (MRGPRX4 DNA 1 pg/cell (Fig. S1), read-out: IP1 Emax) was 106%. For the same molecule, the Emax (MRGPRX4 DNA 1 pg/cell (Fig. S1), read-out: IP1 span) was 96.7%, the “IP1 Basal” value (MRGPRX4 DNA 2 pg/cell (Fig. S1)) was 11.77 and the EC50 (MRGPRX4 DNA 2 pg/cell (Fig. S1), read-out: IP1 EC50) was 6.8 µM. It also gave an Emax (MRGPRX4 DNA 2 pg/cell (Fig. S1), read-out: IP1 Emax) of 108%, an Emax (MRGPRX4 DNA 2 pg/cell (Fig. S1), read-out: IP1 span) of 96.3% and an EC50 (MRGPRX4 DNA […] (Fig. S1), read-out: IP1 EC50) of 13.9 µM. The Emax (MRGPRX4 DNA […] (Fig. S1), read-out: IP1 Emax) was 74.8%, the Emax (MRGPRX4 DNA […] (Fig. S1), read-out: IP1 span) was 72.2% and the IP1 accumulation (MRGPRX4 alone, log [Nateglinide] (M) -4.69897, Fig S3a-c) was 73.8798 and 88.0796. The IP1 accumulation (MRGPRX4 alone, log [Nateglinide] (M) -5.39794, Fig S3a-c) was 42.3002 and 52.0108, the IP1 accumulation (MRGPRX4 alone, log [Nateglinide] (M) -6.09691, Fig S3a-c) was 21.697 and 30.974 and the IP1 accumulation (MRGPRX4 alone, log [Nateglinide] (M) -6.79588, Fig S3a-c) was 15.7135 and 25.7363. For the same molecule, the IP1 accumulation (MRGPRX4 alone, log [Nateglinide] (M) -7.49485, Fig S3a-c) was 14.3426 and 24.4649, the “normalized IP1 accumulation” value (SP-FLAG-Nluc-HT7-MRGX4_Tet-GFP10-1D4, log [agonist] (M) -4.09691) was 53.7873 and 50.7716 and the “normalized IP1 accumulation” value (SP-FLAG-Nluc-HT7-MRGX4_Tet-GFP10-1D4, log [agonist] (M) -4.79588) was 39.105 and 47.513. For the same molecule, the “normalized IP1 accumulation” value (SP-FLAG-Nluc-HT7-MRGX4_Tet-GFP10-1D4, log [agonist] (M) -5.49485) was 24.2093 and 23.5323, the “normalized IP1 accumulation” value (SP-FLAG-Nluc-HT7-MRGX4_Tet-GFP10-1D4, log [agonist] (M) -6.19382) was 9.755 and 12.1626 and the “normalized IP1 accumulation” value (SP-FLAG-Nluc-HT7-MRGX4_Tet-GFP10-1D4, log [agonist] (M) -6.89279) was 9.31 and 10.6126. For the same molecule, the “normalized IP1 accumulation” value (SP-FLAG-Nluc-HT7-MRGX4_Tet-GFP10-1D4, log [agonist] (M) -7.59176) was 10.0922 and 8.039, the “normalized IP1 accumulation” value (SP-FLAG-Nluc-HT7-MRGX4_Tet-GFP10-1D4 no dox, log [agonist] (M) -4.79588) was 9.836 and 10.4491 and the “normalized IP1 accumulation” value (SP-FLAG-Nluc-HT7-MRGX4_Tet-GFP10-1D4 no dox, log [agonist] (M) -5.49485) was 7.573 and 7.949. The “normalized IP1 accumulation” value (SP-FLAG-Nluc-HT7-MRGX4_Tet-GFP10-1D4 no dox, log [agonist] (M) -6.19382) was 7.652 and 7.516, the “normalized IP1 accumulation” value (SP-FLAG-Nluc-HT7-MRGX4_Tet-GFP10-1D4 no dox, log [agonist] (M) -6.89279) was 8.115 and 7.953 and the “normalized IP1 accumulation” value (SP-FLAG-Nluc-HT7-MRGX4_Tet-GFP10-1D4 no dox, log [agonist] (M) -7.59176) was 8.427 and 8.747. The “normalized IP1 accumulation” value (SP-Flag-MRGX4-1D4, log [agonist] (M) -4) was 90.7901 and 99.3577, the “normalized IP1 accumulation” value (SP-Flag-MRGX4-1D4, log [agonist] (M) -4.69897) was 68.6541 and 83.0667 and the “normalized IP1 accumulation” value (SP-Flag-MRGX4-1D4, log [agonist] (M) -5.39794) was 34.48 and 31.1467. The “normalized IP1 accumulation” value (SP-Flag-MRGX4-1D4, log [agonist] (M) -6.09691) was 13.1213 and 14.7496, the “normalized IP1 accumulation” value (SP-Flag-MRGX4-1D4, log [agonist] (M) -6.79588) was 9.479 and 9.146 and the “normalized IP1 accumulation” value (SP-Flag-MRGX4-1D4, log [agonist] (M) -7.49485) was 7.648 and 7.711. The “normalized IP1 accumulation” value (SP-Flag-MRGX4-GFP10-1D4, log [agonist] (M) -4.69897) was 81.9562 and 74.6812, the “normalized IP1 accumulation” value (SP-Flag-MRGX4-GFP10-1D4, log [agonist] (M) -5.39794) was 38.7817 and 35.4094 and the “normalized IP1 accumulation” value (SP-Flag-MRGX4-GFP10-1D4, log [agonist] (M) -6.09691) was 15.3576 and 16.0977. The “normalized IP1 accumulation” value (SP-Flag-MRGX4-GFP10-1D4, log [agonist] (M) -6.79588) was 8.66 and 9.498, the “normalized IP1 accumulation” value (SP-Flag-MRGX4-GFP10-1D4, log [agonist] (M) -7.49485) was 9.929 and 8.168 and the “IP1 Basal” value (Tet-On MRGPRX4 1pg/cell, Dox 13 ng/mL (Fig. S5B)) was -3.433. It also gave an EC50 (Tet-On MRGPRX4 1pg/cell, Dox 13 ng/mL (Fig. S5B), read-out: IP1 EC50) of 19.2 µM, an Emax (Tet-On MRGPRX4 1pg/cell, Dox 13 ng/mL (Fig. S5B), read-out: IP1 Emax) of 17.4% and an Emax (Tet-On MRGPRX4 1pg/cell, Dox 13 ng/mL (Fig. S5B), read-out: IP1 span) of 20.8%. For the same molecule, the “IP1 Basal” value (Tet-On MRGPRX4 1pg/cell, Dox 40 ng/mL (Fig. S5B)) was -3.380, the EC50 (Tet-On MRGPRX4 1pg/cell, Dox 40 ng/mL (Fig. S5B), read-out: IP1 EC50) was 13.7 µM and the Emax (Tet-On MRGPRX4 1pg/cell, Dox 40 ng/mL (Fig. S5B), read-out: IP1 Emax) was 18.8%. For the same molecule, the Emax (Tet-On MRGPRX4 1pg/cell, Dox 40 ng/mL (Fig. S5B), read-out: IP1 span) was 22.1%, the “IP1 Basal” value (Tet-On MRGPRX4 1pg/cell, Dox 1100 ng/mL (Fig. S5B)) was -3.039 and the EC50 (Tet-On MRGPRX4 1pg/cell, Dox 1100 ng/mL (Fig. S5B), read-out: IP1 EC50) was 10.8 µM. The Emax (Tet-On MRGPRX4 1pg/cell, Dox 1100 ng/mL (Fig. S5B), read-out: IP1 Emax) was 30.6%, the Emax (Tet-On MRGPRX4 1pg/cell, Dox 1100 ng/mL (Fig. S5B), read-out: IP1 span) was 33.7% and the “IP1 Basal” value (Tet-On MRGPRX4 1pg/cell, Dox 3300 ng/mL (Fig. S5B)) was -1.008.
